# Entries after “also recorded” stand apart in the source; their conditions may differ.
# Tests used:
# [1] = tested on: LIM 1215 human colon epithelial cells; experiment: Crystal violet proliferation assay; assay type: cell-based; details: three days, low serum (0.05%) media, crystal violet absorbance at 595 nm
# Source text: FIG. 2. This figure is a graphical representation of the proliferative effect of the peptides of the invention on human colonic epithelial cells in vitro. These peptides are designated in the figure as EGF-β (SEQ ID NO: 2, above), represented by the closed circles, and as EGF-α/β (SEQ ID NO: 1, above), represented by the open circles. For comparison, two other peptides of equal length are included, designated as EGF-α and EGF-β/α, and represented by the closed squares and open squares, respectively. The latter two are homologs based on the EGF domain of extracellular NDF-heregulins and consist of the amino acid sequences shown further below in this text (SEQ ID NOS: 3 and 4, respectively). Proliferation is measured with a crystal violet dye which stains the cell protein and is indicative of cell number. […] The picomolar (pM) concentration of peptide used to treat the cells is shown on the horizontal axis.
# a) Crystal Violet Proliferation Assay. The human colon epithelial cell line, LIM 1215 (Whitehead, R. H. et al., J. Natl. Cancer Inst. 4:759-765, 1985) was grown in RPMI-1640 media supplemented with 5% FBS, 1 μg/ml of hydrocortisone, 1 μg/ml of bovine insulin, 10 μM of alpha thioglycerol, and 1X PSG (0.292 mg/ml of 1-glutamine, 100 units/ml of penicillin G, and 100 μg/ml of streptomycin sulfate). At the start of the assay, the cells were 30% confluent and were proliferating rapidly. Cells were released by trypsin, washed with PBS, and seeded into 96-well plates at 5000 cells/well in low serum (0.05%) media (McCoy's-5A supplemented with 4 μg/ml of transferrin, 10 μg/ml of insulin, 10 mM of selenic acid, 4 nM of triiodothyronine, and 0.03% BSA). Dilutions of test peptide were added immediately on day zero; the total volume was 100 μl. Controls included no treatment and serial dilutions of FBS. The 96-well plates were then incubated for three days at 37° C. in a 5% CO2 atmosphere. The media were removed by aspiration and 30 μl of 2% crystal violet (Difco) in methanol was added to the cells for fifteen minutes of staining. Excess dye was washed away with distilled water. To each well 100 μl of 0.04N HCL in isopropanol was added and the dye was resolubilized by mixing. Absorbance was determined at 595 nm and the values were plotted as fold-stimulation over background (or no treatment).
# b) Stimulation of colon cell proliferation. […] The chimeric peptides helped to pinpoint this determinant of activity to the seven residues corresponding to amino acids 222-228 of full length extracellular NDF/heregulin. […]
# [2] = tested on: LIM 1215 cells; experiment: Marker protein expression, ACAS confocal image cytometer; assay type: cell-based, human; set-up: key to Marker Protein Expression: CEA / Marker Protein Expression: Integrin β4 / Marker Protein Expression: Villin: increased expression (+); down-regulated (-); unchanged (0)
# Source text: Additional confirmation of the importance of this seven amino-acid sequence was obtained by scoring for various marker proteins on the LIM 1215 cells. An ACAS confocal image cytometer was used to detect a number of markers on the cells without detaching the cells from the culture dish, as is normally done for fluorescence activated cell sorting (FACS) analysis. […] The expression of a number of other markers was unchanged (0) by treatment with EGF-β. Analogous to the previous results characterizing gross, observable morphology changes, neither EGF-α nor EGF-β/α changed the levels of these marker proteins, while EGF-α/β changed the expression of the marker proteins in a manner similar to that seen with EGF-β.
# [3] = tested on: Schwann cells; experiment: Schwann cell proliferation (BrdU incorporation, NGFR staining); assay type: cell-based, rat; details: for percent of Schwann cells proliferating: BrdU for six hours after 24 h; for Schwann cell proliferation, comparison in words: versus EGF-β/α
# Method: The sciatic nerve from neonatal rats was used to generate a primary culture of Schwann cells. The cells were plated overnight in 10% serum without exposure to any growth factor. The following day, EGF-β, EGF-α/βand EGF-β/α were added at the concentrations in nanograms per milliliter(ng/ml) shown in Table 2, below. Twenty four hours later, BrdU was added to each test sample for six hours. BrdU is a thymidine analog which is incorporated into the DNA of dividing cells and can be detected by standard immunochemistry procedures. This agent thus provides a means for determining expansion of the total amount of DNA in a test sample and is a measure of whether cell proliferation has occurred. Upon the completion of the test period, Schwann cells were fixed and analyzed immunohistochemically. The cells were first stained for nerve growth factor receptor (NGFR), which is a known marker for Schwann cells in culture, followed by staining for BrdU. Cell counting was carried out as follows: in a given microscope field of view, all recognizable Schwann cells were counted, then the number of cells showing positive for BrdU staining were also counted. For each test sample (or well) two or three fields were counted, amounting to about 200 to 300 Schwann cells in all. The result is expressed in Table 2 as the percent of Schwann cells proliferating.
# [4] = tested on: LIM 1215 human colon epithelial cells; experiment: Morphogenic activity: fluorescent actin staining (NBD phalloidin), confocal microscope; assay type: cell-based; details: 420 picomolar peptide, three days, serum-free media
# Method: c) Staining of LIM 1215 human colon cells with fluorescent dye. LIM 1215 cells were grown in RPMI-1640 media supplemented with 5% FBS, 1 μg/ml of bovine insulin, 10 μm of alpha thioglycerol, and 1× PSG. At the time of assay, the cells were more than 30% confluent and were proliferating rapidly. The cells were seeded into 24-well plates at 25,000 cells/well in serum-free media (McCoy's-5A, supplemented with 4 μg/ml of transferrin, 10 μg/ml of insulin, 10 mM of selenic acid, […], and 0.03% BSA). Test peptides were added at a concentration of 420 picomolar immediately on day zero; the total volume was 1.0 ml. Controls included no treatment and serial dilutions of FBS. The 24-well plates were then incubated for three days at 37° C. and 5% CO2, after which the media were removed by aspiration and the cells were washed in 1.0 ml of PBS with 0.5% BSA. All subsequent washings were performed with this buffer. The cells were then fixed in Orthopermeafix (Ortho Chemicals Co.) for thirty minutes at room temperature, and were washed twice. Then 200 μl of a 10 nM NBD phalloidin fluorescent dye solution in PBS were added and the cells were incubated in the dark (wrapped in aluminum foil) for thirty minutes at room temperature. The cells were washed twice, and inspected using a confocal microscope.
# d) Morphogenic activity of peptides on colon epithelial cells. Upon treatment of LIM 1215 cells with the EGF-β peptide, it was evident that the morphology of the cells changed dramatically. […] In the absence of treatment, the cells appeared small and rounded. […] Because the cells were proliferating rapidly in 5% FBS serum-containing media (FIG. 3), the unique morphology caused by the EGF-β peptide could not have been due solely to its ability to stimulate proliferation. Moreover, the difference in morphogenic activities between EGF-β and EGF-α must have originated in the last sixteen amino acids of the C-terminus, as this is the only difference in sequence between the two peptides.
# Further localization of morphogenic activity was obtained by use of the chimeric peptides, EGF-β/α and EGF-α/β. […] Again, the only difference in sequence between these two peptides is the last seven amino acids of the C-terminal portion.
# [5] = target: endoproteinase Lys-C (Lysobacter enzymogenes, UniProt Q7M135); experiment: Digestion by endoproteinase Lys-C (peptide mapping); details: cleavage at lysine residue at position 211
# Chain of endoproteinase Lys-C (Q7M135 whole entry, the tested form may be a part): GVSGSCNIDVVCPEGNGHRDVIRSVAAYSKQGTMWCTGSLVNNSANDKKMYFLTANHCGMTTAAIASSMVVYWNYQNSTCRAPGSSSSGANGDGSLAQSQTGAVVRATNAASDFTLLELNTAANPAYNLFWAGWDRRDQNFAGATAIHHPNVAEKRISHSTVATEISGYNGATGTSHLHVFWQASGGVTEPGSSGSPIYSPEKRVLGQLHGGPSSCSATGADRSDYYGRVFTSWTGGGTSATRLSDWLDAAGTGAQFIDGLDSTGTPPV
# Source text: The initial studies referred to here utilized peptides based solely on sequences of the EGF-like domain of the aforementioned α2 and β1 forms of NDF/heregulin, that is to say, that portion of the extracellular protein from amino acid residue 177 to amino acid residue 228 (see FIG. 1 herein). […] The reason for this difference was not initially apparent. However, during peptide mapping studies of the EGF-like domains of NDF/heregulins, it was discovered that the α and β forms cleaved (degraded) at different rates when subjected to digestion by endoproteinase Lys-C. […] Moreover, this phenomenon seemed limited to the lysine residue at position 211. There was no apparent difference in the rate of cleavage between α and β at any other lysine residues in the N-terminal end of the EGF-like domain.
# [6] = peptide concentration 0.1 ng/ml
# [7] = peptide concentration 100 ng/ml
substance,measurement,setting,value
EGF-α/β: chimeric 52-residue peptide SHLVK-(A)-QNYVMAS; α177-221/β222-228 of extracellular NDF/heregulin EGF-like domain (SHLVKCAEKEKTFCVNGGECFMVKDLSNPSRYLCKCQPGFTGARCQNYVMAS),"proliferation of LIM 1215 cells (fold stimulation, FIG. 2)",[1],best results for cell proliferation; also recorded: displayed significant mitogenic activity
same,Marker Protein Expression: CEA,[2],+
same,Marker Protein Expression: Integrin β4,[2],+
same,Marker Protein Expression: Villin,[2],-
same,percent of Schwann cells proliferating,[3]; [6],1%
same,percent of Schwann cells proliferating,[3]; peptide concentration 1 ng/ml,10%
same,percent of Schwann cells proliferating,[3]; peptide concentration 10 ng/ml,10%
same,percent of Schwann cells proliferating,[3]; [7],17%
same,"Schwann cell proliferation, comparison in words",[3],stimulated the proliferation of Schwann cells to a significantly greater extent than EGF-β/α
same,morphological (morphogenic) changes of LIM 1215 cells,[4],evidence of cell development and maturation is seen; also recorded: caused apparent morphogenic changes
EGF-α: comparison 52-residue peptide SHLVK-(A)-TENVPMK; EGF-like domain (residues 177-228) of NDF/heregulin α2 (SHLVKCAEKEKTFCVNGGECFMVKDLSNPSRYLCKCQPGFTGARCTENVPMK) [reference compound],"proliferation of LIM 1215 cells (fold stimulation, FIG. 2)",[1],Some proliferation was obtained; also recorded: not as potent a mitogen
same,Marker Protein Expression: CEA,[2],0
same,Marker Protein Expression: Integrin β4,[2],0
same,Marker Protein Expression: Villin,[2],0
same,rate of cleavage by endoproteinase Lys-C,[5],faster enzymatic cleavage
same,morphological (morphogenic) changes of LIM 1215 cells,[4],did not produce the same morphogenic changes
EGF-β/α: comparison chimeric 52-residue peptide SHLVK-(B)-TENVPMK; β177-221/α222-228 of extracellular NDF/heregulin (SHLVKCAEKEKTFCVNGGECFMVKDLSNPSRYLCKCPNEFTGDRCTENVPMK) [reference compound],"proliferation of LIM 1215 cells (fold stimulation, FIG. 2)",[1],No effect was seen; also recorded: did not show any detectable effect
same,Marker Protein Expression: CEA,[2],0
same,Marker Protein Expression: Integrin β4,[2],0
same,Marker Protein Expression: Villin,[2],0
same,percent of Schwann cells proliferating,[3]; [6],1%
same,percent of Schwann cells proliferating,[3]; peptide concentration 1 ng/ml,2%
same,percent of Schwann cells proliferating,[3]; peptide concentration 10 ng/ml,5%
same,percent of Schwann cells proliferating,[3]; [7],10%
same,morphological (morphogenic) changes of LIM 1215 cells,[4],appear unchanged; also recorded: did not produce any noticeable change
EGF-β: 52-residue peptide SHLVK-(B)-QNYVMAS; EGF-like domain (residues 177-228) of NDF/heregulin β1 (SHLVKCAEKEKTFCVNGGECFMVKDLSNPSRYLCKCPNEFTGDRCQNYVMAS),"proliferation of LIM 1215 cells (fold stimulation, FIG. 2)",[1],best results for cell proliferation; also recorded: stimulated the proliferation of LIM 1215 cells
same,Marker Protein Expression: CEA,[2],+
same,Marker Protein Expression: Integrin β4,[2],+
same,Marker Protein Expression: Villin,[2],-
same,expression of a number of other markers,[2],unchanged
same,percent of Schwann cells proliferating,[3]; [6],7.5%
same,percent of Schwann cells proliferating,[3]; peptide concentration 1 ng/ml,13%
same,percent of Schwann cells proliferating,[3]; peptide concentration 10 ng/ml,14%
same,percent of Schwann cells proliferating,[3]; [7],19%
same,"Schwann cell proliferation, comparison in words",[3],stimulated the proliferation of Schwann cells to a significantly greater extent than EGF-β/α
same,rate of cleavage by endoproteinase Lys-C,[5],more resistant to this enzyme and cleaved at a slower rate
same,morphological (morphogenic) changes of LIM 1215 cells,[4],"Evidence of cellular morphological changes is seen; also recorded: noticeable change in morphology, becoming enlarged and assuming a cobblestone-like appearance"
